According to ChEMBL document CHEMBL1142366, “Synthesis of pyrimidine and quinolone conjugates as a scaffold for dual inhibitors of HIV reverse transcriptase and integrase” (Bioorg Med Chem Lett, 2008):

What was measured:
[1] = Inhibition of HIV integrase; design: species or system Human immunodeficiency virus
[2] = test system: Human immunodeficiency virus; assay: Antiviral activity against HIV by cell based assay; type: functional, organism-based; details: Human immunodeficiency virus 1
[3] = Inhibition of HIV reverse transcriptase; design: species or system Human immunodeficiency virus

| IC50 [1] | EC50 [2] | IC50 [3] | SMILES |
| --- | --- | --- | --- |
| 41000 nM | 210 nM | 2600 nM | CC(C)c1c(Cc2ccccc2)n(COCc2ccc3c(c2)c(=O)c(C(=O)O)cn3C)c(=O)[nH]c1=O |
| 35000 nM | 220 nM | 190 nM | CC(C)c1c(Cc2ccccc2)n(COCc2ccc3[nH]cc(C(=O)O)c(=O)c3c2)c(=O)[nH]c1=O |
| 19000 nM | 2200 nM | 3700 nM | CC(C)c1c(Cc2ccccc2)n(COCc2ccc3c(c2)c(=O)c(C(=O)O)cn3CCO)c(=O)[nH]c1=O |
| 51000 nM | 1500 nM | 1100 nM | CCn1cc(C(=O)O)c(=O)c2cc(COCn3c(Cc4ccccc4)c(C(C)C)c(=O)[nH]c3=O)ccc21 |
